From ChEMBL document CHEMBL4651402, “Screening of ~5500 FDA-approved drugs and clinical candidates for anti-SARS-CoV-2 activity” (2021) come the findings set out here.

The test system of this experiment is SARS-CoV-2. Put plainly: microbe, parasite or virus in culture. The following applies: Severe acute respiratory syndrome coronavirus 2, Vero C1008, 48 h.

`CC(Cc1cccc(C(F)(F)F)c1)NCCOC(=O)c1ccccc1` (stereo not drawn) [BENFLUOREX] returned an IC50 of over 20 µM. The IC50 (read-out: pIC50 (converted)) was over 20 µM.
`C/C(=C(\CCOP(=O)(O)O)SC(=O)c1ccccc1)N(C=O)Cc1cnc(C)nc1N` [BENFOTIAMINE] displayed an IC50 of over 20 µM. In addition, the IC50 (read-out: pIC50 (converted)) is over 20 µM.
For the compound `CC(C(=O)O)c1ccc2oc(-c3ccc(Cl)cc3)nc2c1` (stereo not drawn) [BENOXAPROFEN], the IC50 was over 20 µM. Moreover, the IC50 (read-out: pIC50 (converted)) is over 20 µM.
Compound `CCCCOc1cc(C(=O)OCCN(CC)CC)ccc1N` [BENOXINATE] returned an IC50 of over 20 µM. Where the note is “read-out: pIC50 (converted)”, the IC50 was over 20 µM.
`O=C(CCCN1CCC(n2c(=O)[nH]c3ccccc32)CC1)c1ccc(F)cc1` [BENPERIDOL] registered an IC50 of over 20 µM. Also, the IC50 (read-out: pIC50 (converted)) was over 20 µM.
The compound `NC(CO)C(=O)NNCc1ccc(O)c(O)c1O` (stereo not drawn) [BENSERAZIDE] registered an IC50 of over 20 µM. Besides, the IC50 (read-out: pIC50 (converted)) is over 20 µM.
With `O=C1CN=C(c2ccccc2)c2c(sc3c2CCCC3)N1` [BENTAZEPAM], the IC50 was over 20 µM. Also, for the setting “read-out: pIC50 (converted)”, the IC50 is over 20 µM.
`N/C(=N\C(=O)c1nc(Cl)c(N)nc1N)NCc1ccccc1` [BENZAMIL] displayed an IC50 of over 20 µM. For the same compound, where the note is “read-out: pIC50 (converted)”, the IC50 is over 20 µM.
The compound `O=C1c2ccccc2-c2cccc3cccc1c23` [BENZANTHRONE] displayed an IC50 of over 20 µM. Further, under “read-out: pIC50 (converted)”, the IC50 was over 20 µM.
The compound `CCc1oc2ccccc2c1C(=O)c1cc(Br)c(O)c(Br)c1` [BENZBROMARONE] gave an IC50 of over 20 µM. Further, the IC50 (read-out: pIC50 (converted)) was over 20 µM.
Turning to `O=C1CCC(c2ccccc2)(C2CCN(Cc3ccccc3)CC2)C(=O)N1` (stereo not drawn) [BENZETIMIDE], the IC50 was over 20 µM. For the same compound, under “read-out: pIC50 (converted)”, the IC50 is over 20 µM.
For the compound `CC[N+]1(CC)CCC(OC(=O)C(O)(c2ccccc2)c2ccccc2)C1` (stereo not drawn) [BENZILONIUM], the IC50 was over 20 µM. Besides, the IC50 (read-out: pIC50 (converted)) was over 20 µM.
With `c1ccc(Cn2cc(CCc3ccncc3)c3ccccc32)cc1` [BENZINDOPYRINE], the IC50 is over 20 µM. For the setting “read-out: pIC50 (converted)”, the IC50 is over 20 µM.
`CCc1oc2ccccc2c1C(=O)c1cc(I)c(O)c(I)c1` [BENZIODARONE]: the IC50 was over 20 µM. Also, the IC50 (read-out: pIC50 (converted)) was over 20 µM.
For `CCOC(=O)c1ccc(N)cc1` [BENZOCAINE], the IC50 is over 20 µM. In addition, the IC50 (read-out: pIC50 (converted)) is over 20 µM.
Regarding `O=C(O)c1ccccc1` [BENZOIC ACID], the IC50 was over 20 µM. Also, the IC50 (read-out: pIC50 (converted)) was over 20 µM.
Take `O=C(c1ccccc1)C(O)c1ccccc1` (stereo not drawn) [BENZOIN]: the IC50 is over 20 µM. Also, the IC50 (read-out: pIC50 (converted)) is over 20 µM.
In turn, `CCCCNc1ccc(C(=O)OCCOCCOCCOCCOCCOCCOCCOCCOCCOC)cc1` [BENZONATATE] came in with an IC50 of over 20 µM. Also, the IC50 (read-out: pIC50 (converted)) is over 20 µM.
The compound `O=C(c1ccccc1)c1ccccc1` [BENZOPHENONE] gave an IC50 of over 20 µM. Also, the IC50 (read-out: pIC50 (converted)) is over 20 µM.
In turn, `c1ccc2sc(SSc3nc4ccccc4s3)nc2c1` [BENZOTHIAZYL DISULFIDE] displayed an IC50 of over 20 µM. For the same compound, for the setting “read-out: pIC50 (converted)”, the IC50 is over 20 µM.
Compound `O=C(N[C@@H](Cc1c[nH]c2ccccc12)C(=O)O)c1ccc(Cl)cc1` [BENZOTRIPT] displayed an IC50 of over 20 µM. The IC50 (read-out: pIC50 (converted)) is over 20 µM.
The compound `O=C(Oc1cccc2cccnc12)c1ccccc1` [BENZOXIQUINE] displayed an IC50 of over 20 µM. For the same compound, the IC50 (read-out: pIC50 (converted)) was over 20 µM.
`O=C(OOC(=O)c1ccccc1)c1ccccc1` [BENZOYL PEROXIDE] came in with an IC50 of over 20 µM. For the same compound, the IC50 (read-out: pIC50 (converted)) was over 20 µM.
`O=C(Nc1ccc(C(=O)O)c(O)c1)c1ccccc1` [BENZOYLPAS] registered an IC50 of over 20 µM. The IC50 (read-out: pIC50 (converted)) is over 20 µM.
As to `CCN(CC)C(=O)C1CN2CCc3cc(OC)c(OC)cc3C2CC1OC(C)=O` (stereo not drawn) [BENZQUINAMIDE], the IC50 was over 20 µM. Also, the IC50 (read-out: pIC50 (converted)) was over 20 µM.
In the case of `NS(=O)(=O)c1cc2c(cc1Cl)N=C(CSCc1ccccc1)NS2(=O)=O` [BENZTHIAZIDE], the IC50 is over 20 µM. Further, the IC50 (read-out: pIC50 (converted)) is over 20 µM.
As for `CN(C)CCCOc1nn(Cc2ccccc2)c2ccccc12` [BENZYDAMINE], the IC50 was over 20 µM. The IC50 (read-out: pIC50 (converted)) was over 20 µM.
For the compound `O=C(OCc1ccccc1)c1ccccc1` [BENZYL BENZOATE], the IC50 is over 20 µM. Also, for the setting “read-out: pIC50 (converted)”, the IC50 was over 20 µM.
On to `NNCc1ccccc1` [BENZYLHYDRAZINE], for which the IC50 was over 20 µM. In addition, the IC50 (read-out: pIC50 (converted)) was over 20 µM.
On to `C[N+](C)(CCOc1ccccc1)Cc1ccccc1` [BEPHENIUM], for which the IC50 is over 20 µM. Moreover, the IC50 (read-out: pIC50 (converted)) is over 20 µM.
`CC(C)COCC(CN(Cc1ccccc1)c1ccccc1)N1CCCC1` (stereo not drawn) [BEPRIDIL] returned an IC50 of over 20 µM. Further, the IC50 (read-out: pIC50 (converted)) is over 20 µM.
Take `COc1ccc2cc3[n+](cc2c1OC)CCc1cc2c(cc1-3)OCO2` [BERBERINE]: the IC50 was over 20 µM. Further, the IC50 (read-out: pIC50 (converted)) was over 20 µM.
Compound `COc1c2ccoc2cc2oc(=O)ccc12` [BERGAPTEN] returned an IC50 of over 20 µM. The IC50 (read-out: pIC50 (converted)) was over 20 µM.
`Cc1ccc2c(c1)CC(=O)c1cc(C(C)C(=O)O)ccc1O2` (stereo not drawn) [BERMOPROFEN] gave an IC50 of over 20 µM. In addition, the IC50 (read-out: pIC50 (converted)) is over 20 µM.
The compound `N[C@@H]1CCCCN(c2c(F)cc3c(=O)c(C(=O)O)cn(C4CC4)c3c2Cl)C1` [BESIFLOXACIN] registered an IC50 of over 20 µM. Further, the IC50 (read-out: pIC50 (converted)) was over 20 µM.
Take `Nc1ncc2ncn(CC3(OCP(=O)(O)O)CC3)c2n1` [BESIFOVIR]: the IC50 is over 20 µM. Further, the IC50 (read-out: pIC50 (converted)) was over 20 µM.
As to `COc1cc2c(c(OC)c1OC)-c1c(cc3c(c1OC)OCO3)C[C@H](C)[C@@](C)(O)C2` [BESIGOMSIN], the IC50 was over 20 µM. The IC50 (read-out: pIC50 (converted)) is over 20 µM.
`CC[C@H](CC[C@@H](C)[C@H]1CC[C@H]2[C@@H]3CC=C4C[C@@H](O)CC[C@]4(C)[C@H]3CC[C@]12C)C(C)C` [BETA-SITOSTEROL] yielded an IC50 of over 20 µM. In addition, the IC50 (read-out: pIC50 (converted)) was over 20 µM.
Regarding `CC[C@H](OC(C)=O)C(C[C@@H](C)N(C)C)(c1ccccc1)c1ccccc1` [BETACETYLMETHADOL], the IC50 is over 20 µM. The IC50 (read-out: pIC50 (converted)) is over 20 µM.
As to `OC[C@H]1O[C@@H]2O[C@H]3[C@H](O)[C@@H](O)[C@@H](O[C@H]4[C@H](O)[C@@H](O)[C@@H](O[C@H]5[C@H](O)[C@@H](O)[C@@H](O[C@H]6[C@H](O)[C@@H](O)[C@@H](O[C@H]7[C@H](O)[C@@H](O)[C@@H](O[C@H]8[C@H](O)[C@@H](O)[C@@H](O[C@H]1[C@H](O)[C@H]2O)O[C@@H]8CO)O[C@@H]7CO)O[C@@H]6CO)O[C@@H]5CO)O[C@@H]4CO)O[C@@H]3CO` [BETADEX], the IC50 is over 20 µM. Under “read-out: pIC50 (converted)”, the IC50 is over 20 µM.
With `CNCCc1ccccn1` [BETAHISTINE], the IC50 was over 20 µM. Further, the IC50 (read-out: pIC50 (converted)) was over 20 µM.
As to `C[N+](C)(C)CC(=O)O` [BETAINE], the IC50 is over 20 µM. In addition, the IC50 (read-out: pIC50 (converted)) was over 20 µM.
Compound `CC[C@H](O)C(C[C@@H](C)N(C)C)(c1ccccc1)c1ccccc1` [BETAMETHADOL] yielded an IC50 of over 20 µM. Besides, the IC50 (read-out: pIC50 (converted)) is over 20 µM.
`CCC(=O)OCC(=O)[C@@]1(OC(=O)CC)[C@@H](C)C[C@H]2[C@@H]3CCC4=CC(=O)C=C[C@]4(C)[C@@]3(F)[C@@H](O)C[C@@]21C` [BETAMETHASONE DIPROPIONATE]: the IC50 is over 20 µM. In addition, the IC50 (read-out: pIC50 (converted)) is over 20 µM.
